# Source: patent US20130252944A1, “NOVEL FUSED PYRAZOLE DERIVATIVES AND THEIR USE AS ALLOSTERIC MODULATORS OF METABOTROPIC GLUTAMATE RECEPTORS” (priority 2010, published 2013)
# Biological target: T1, recombinant human mGluR4a receptors (Homo sapiens, UniProt Q14833)
# T1 construct: expressed in transfected cells
# Assay: Fluorescent cell based Ca2+ mobilization assay (FLIPR) on HEK-293 cells expressing human mGluR4
# Conditions: positive allosteric modulation in presence of EC25 glutamate; HEK-293 hmGluR4; mean of at least three independent experiments in duplicate; read-out: Ca^2+ Flux (mean EC50)
# From the text: mGluR4 Assay on HEK-Expressing Human mGluR4
# The compounds of the present invention are positive allosteric modulators of mGluR4 receptor. Their activity was examined on recombinant human mGluR4a receptors by detecting changes in intracellular Ca^2+concentration, using the fluorescent Ca^2+-sensitive dye Fluo4-(AM) and a Fluorometric Imaging Plate Reader (FLIPR, Molecular Devices, Sunnyvale, Calif.).
# The cDNA encoding the human metabotropic glutamate receptor (hmGluR4), (accession number NM_000841.1, NCBI Nucleotide database browser), was subcloned into an expression vector containing also the hygromycin resistance gene. In parallel, the cDNA encoding a G protein allowing redirection of the activation signal to intracellular calcium flux was subcloned into a different expression vector containing also the puromycin resistance gene. Transfection of both these vectors into HEK293 cells with PolyFect reagent (Qiagen) according to supplier's protocol, and hygromycin and puromycin treatment allowed selection of antibiotic resistant cells which had integrated stably one or more copies of the plasmids. Positive cellular clones expressing hmGluR4 were identified in a functional assay measuring changes in calcium fluxes in response to glutamate or selective known mGluR4 orthosteric agonists and antagonists.
# HEK-293 cells expressing hmGluR4 were maintained in media containing DMEM, dialyzed Fetal Calf Serum (10%), Glutamax™ (2 mM), Penicillin (100 units/mL), Streptomycin (100 μg/mL), Geneticin (100 μg/mL) and Hygromycin-B (40 μg/mL) and puromycin (1 μg/mL) at 37° C./5% CO2.
# Human mGluR4 HEK-293 cells were plated out 24 hours prior to FLIPR^384 assay in black-walled, clear-bottomed, poly-L-ornithine-coated 384-well plates at a density of 25,000 cells/well in a glutamine/glutamate free DMEM medium containing foetal bovine serum (10%), penicillin (100 units/mL) and streptomycin (100 μg/mL) at 37° C./5% CO2.
# On the day of the assay, the medium was aspirated and the cells were loaded with a 3 μM solution of Fluo4-AM (LuBioScience, Lucerne, Switzerland) in 0.03% pluronic acid. After 1 hour at 37° C./5% CO2, the non incorporated dye was removed by washing cell plate with the assay buffer and the cells were left in the dark at room temperature for […] before testing. All assays were performed in a pH=7.4 buffered-solution containing 20 mM HEPES, 143 mM NaCl, 6 mM KCl, 1 mM MgSO4, 1 mM CaCl2, 0.125 mM sulfapyrazone and 0.1% glucose.
# After 10 s of basal fluorescence recording, various concentrations of the compounds of the invention were added to the cells. Changes in fluorescence levels were first monitored for 180 s in order to detect any agonist activity of the compounds. Then the cells were stimulated by an EC25 glutamate concentration for an additional 110 s in order to measure enhancing activities of the compounds of the invention. EC25 glutamate concentration is the concentration giving 25% of the maximal glutamate response.
# The concentration-response curves of representative compounds of the present invention were generated using the Prism GraphPad software (Graph Pad Inc, San Diego, USA). The curves were fitted to a four-parameter logistic equation:
# (Y=Bottom+(Top−Bottom)/(1+10̂((LogEC50−X)*Hill Slope)
# allowing the determination of EC50 values.
# The Table 3 below represents the mean EC50 obtained from at least three independent experiments of selected molecules performed in duplicate.
# T1 sequence (Q14833 33-912): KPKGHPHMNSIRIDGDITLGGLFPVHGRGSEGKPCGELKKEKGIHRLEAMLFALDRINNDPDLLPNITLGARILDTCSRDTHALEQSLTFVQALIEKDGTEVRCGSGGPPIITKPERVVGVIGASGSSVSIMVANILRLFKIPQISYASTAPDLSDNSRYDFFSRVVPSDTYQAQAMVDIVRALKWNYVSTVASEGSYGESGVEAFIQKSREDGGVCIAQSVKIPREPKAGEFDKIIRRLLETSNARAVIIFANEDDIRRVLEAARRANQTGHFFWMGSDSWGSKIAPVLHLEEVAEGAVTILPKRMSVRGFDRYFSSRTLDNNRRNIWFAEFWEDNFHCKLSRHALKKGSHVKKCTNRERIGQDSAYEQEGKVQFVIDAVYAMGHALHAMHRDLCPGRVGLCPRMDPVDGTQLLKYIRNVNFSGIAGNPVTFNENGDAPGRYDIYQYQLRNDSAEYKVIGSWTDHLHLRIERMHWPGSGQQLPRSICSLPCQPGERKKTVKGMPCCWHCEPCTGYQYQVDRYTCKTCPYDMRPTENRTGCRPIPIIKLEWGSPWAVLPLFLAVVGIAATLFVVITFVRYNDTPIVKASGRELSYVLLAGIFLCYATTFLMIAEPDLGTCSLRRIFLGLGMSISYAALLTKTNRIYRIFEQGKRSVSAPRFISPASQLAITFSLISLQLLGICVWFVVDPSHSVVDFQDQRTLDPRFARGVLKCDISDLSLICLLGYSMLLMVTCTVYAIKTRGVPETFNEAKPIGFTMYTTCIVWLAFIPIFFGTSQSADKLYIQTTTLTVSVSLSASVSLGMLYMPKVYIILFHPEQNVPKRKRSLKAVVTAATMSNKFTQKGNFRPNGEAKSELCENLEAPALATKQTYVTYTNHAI
row,Compound,EC50 [nM]
1,"Cc1ccnc(Nc2nc3c(s2)COC(c2ccccn2)c2[nH]ncc2-3)n1 (stereo not drawn) [Compound 1-31, (4-Methyl-pyrimidin-2-yl)-(6-pyridin-2-yl-6,7-dihydro-4H-5-oxa-3-thia-1,7,8-triaza-cyclopenta[e]azulen-2-yl)-amine]",< 100
2,"(6-Isopropyl-6,7-dihydro-4H-5-oxa-3-thia-1,7,8-triaza-cyclopenta[e]azulen-2-yl)-(5-methyl-[1,2,4]thiadiazol-3-yl)-amine [Compound 1-25]",100 to 1000
3,"Dimethyl-carbamic acid 2-(4-methyl-pyrimidin-2-ylamino)-4,5,6,6a,7,8-hexahydro-3-thia-1,7,8-triaza-cyclopenta[e]azulen-5-yl ester [Compound 1-6]",100 to 1000
